Test results as given in publication PMC10945337 (Theranostics, 2024).
Where two headings read alike, the source gives them in different places.

Key:
metastases = conditions: cited from earlier work
[1] = cited from earlier work
[2] = tested on: tumor lesions (bone metastases or lymph node metastases); assay: Whole-body planar and SPECT/CT imaging-based dosimetry of tumor lesions; type: in vivo, human; conditions: n = 17 tumor lesions
[3] = Whole-body planar and SPECT/CT imaging-based dosimetry of normal organs (kidneys, liver, parotid and submandibular glands); type: in vivo, human
[4] = all metastases, ref Okamoto et al. [53]
[5] = bone metastases, ref Violet et al. [52]
[6] = lymph node metastases, ref Violet et al. [52]
[7] = kidneys, mean ± SD, 6 mCRPC patients
[8] = liver, mean ± SD, 6 mCRPC patients
[9] = parotid gland, mean ± SD, 6 mCRPC patients
[10] = submandibular gland, mean ± SD, 6 mCRPC patients

Molecule: O=C([O-])CC[C@H](NC(=O)N[C@@H](CCCCNC(=O)CCCCCCC(=O)NCCCC[C@@H](NC(=O)[C@@H](Cc1ccccc1)NC(=O)[C@@H](Cc1ccc(O)c(I)c1)NC(=O)CC[C@H](C(=O)[O-])N1CCN(CC(=O)[O-])CCN(CC(=O)[O-])CCN(CC(=O)[O-])CC1)C(=O)[O-])C(=O)[O-])C(=O)[O-].[177Lu+3].[H+].[H+].[H+].[H+].[H+] [[^177Lu]Lu-PSMA I&T]
- Absorbed dose, range (metastases; [4]): 0.22 - 12.03 Gy/GBq
- Mean absorbed dose (metastases; [4]): 3.2 ± 2.6 Gy/GBq

Molecule: [^177Lu]Lu-PSMA-617
- Patients with grade 1 / 2 xerostomia ([1]; REALITY study, ref [16]): 20.9%
- Patients with grade 1 / 2 xerostomia ([1]; VISION study, ref [10]): 38.8%
- Absorbed dose, range (metastases; [5]): 0.41-10.71 Gy/GBq
- Mean absorbed dose (metastases; [5]): 5.28 Gy/GBq
- Absorbed dose, range (metastases; [6]): 0.52-16.23 Gy/GBq
- Mean absorbed dose (metastases; [6]): 3.91 Gy/GBq
- Absorbed dose of the tumor lesions, range ([2]; 6 mCRPC patients): 0.42 - 12.91 Gy/GBq
- Mean absorbed dose of the tumor lesions ([2]; 6 mCRPC patients, mean ± SD): 2.59 ± 3.30 Gy/GBq
- Effective half-life in tumor lesions (mean) ([2]; mean ± SD): 35.3 ± 6.3 h
- A (% injected A0), monoexponential curve-fitting parameter [3, 7]: 4.80 ± 1.94 % injected A0
- Absorbed dose [3, 7]: 0.545 ± 0.231 mGy/MBq
- Mean absorbed dose [3, 7]: 0.545 ± 0.231 Gy/GBq
- TIAC (time-integrated activity coefficient) [3, 7]: 1.59 ± 0.68 h
- λ, monoexponential curve-fitting parameter [3, 7]: 0.028 ± 0.011 h⁻¹
- A (% injected A0), monoexponential curve-fitting parameter [3, 8]: 2.28 ± 0.88 % injected A0
- Absorbed dose [3, 8]: 0.103 ± 0.057 mGy/MBq
- TIAC (time-integrated activity coefficient) [3, 8]: 1.65 ± 1.36 h
- λ, monoexponential curve-fitting parameter [3, 8]: 0.030 ± 0.009 h⁻¹
- A (% injected A0), monoexponential curve-fitting parameter [3, 9]: 0.53 ± 0.20 % injected A0
- Absorbed dose [3, 9]: 0.333 ± 0.194 mGy/MBq
- TIAC (time-integrated activity coefficient) [3, 9]: 0.13 ± 0.09 h
- λ, monoexponential curve-fitting parameter [3, 9]: 0.031 ± 0.005 h⁻¹
- Individual absorbed dose ([3]; patient 1 (pre-treatment N, C, L, R), kidneys): 0.666 mGy/MBq
- Individual absorbed dose ([3]; patient 1 (pre-treatment N, C, L, R), liver): 0.199 mGy/MBq
- Individual absorbed dose ([3]; patient 1 (pre-treatment N, C, L, R), parotid gland): 0.398 mGy/MBq
- Individual absorbed dose ([3]; patient 1 (pre-treatment N, C, L, R), submandibular gland): 0.309 mGy/MBq
- Individual absorbed dose ([3]; patient 2 (pre-treatment N, C, L, A, R), kidneys): 0.492 mGy/MBq
- Individual absorbed dose ([3]; patient 2 (pre-treatment N, C, L, A, R), liver): 0.138 mGy/MBq
- Individual absorbed dose ([3]; patient 2 (pre-treatment N, C, L, A, R), parotid gland): 0.150 mGy/MBq
- Individual absorbed dose ([3]; patient 2 (pre-treatment N, C, L, A, R), submandibular gland): 0.190 mGy/MBq
- Individual absorbed dose ([3]; patient 3 (pre-treatment N, C, L, A, R), kidneys): 0.906 mGy/MBq
- Individual absorbed dose ([3]; patient 3 (pre-treatment N, C, L, A, R), liver): 0.069 mGy/MBq
- Individual absorbed dose ([3]; patient 3 (pre-treatment N, C, L, A, R), parotid gland): 0.146 mGy/MBq
- Individual absorbed dose ([3]; patient 3 (pre-treatment N, C, L, A, R), submandibular gland): 0.112 mGy/MBq
- Individual absorbed dose ([3]; patient 4 (pre-treatment N, C, L, A, R), kidneys): 0.674 mGy/MBq
- Individual absorbed dose ([3]; patient 4 (pre-treatment N, C, L, A, R), liver): 0.125 mGy/MBq
- Individual absorbed dose ([3]; patient 4 (pre-treatment N, C, L, A, R), parotid gland): 0.703 mGy/MBq
- Individual absorbed dose ([3]; patient 4 (pre-treatment N, C, L, A, R), submandibular gland): 0.664 mGy/MBq
- Individual absorbed dose ([3]; patient 5 (pre-treatment N, C, L), kidneys): 0.252 mGy/MBq
- Individual absorbed dose ([3]; patient 5 (pre-treatment N, C, L), liver): 0.037 mGy/MBq
- Individual absorbed dose ([3]; patient 5 (pre-treatment N, C, L), parotid gland): 0.217 mGy/MBq
- Individual absorbed dose ([3]; patient 5 (pre-treatment N, C, L), submandibular gland): 0.178 mGy/MBq
- Individual absorbed dose ([3]; patient 6 (pre-treatment N, C, L, A), kidneys): 0.278 mGy/MBq
- Individual absorbed dose ([3]; patient 6 (pre-treatment N, C, L, A), liver): 0.049 mGy/MBq
- Individual absorbed dose ([3]; patient 6 (pre-treatment N, C, L, A), parotid gland): 0.387 mGy/MBq
- Individual absorbed dose ([3]; patient 6 (pre-treatment N, C, L, A), submandibular gland): 0.259 mGy/MBq
- A (% injected A0), monoexponential curve-fitting parameter [3, 10]: 0.41 ± 0.26 % injected A0
- Absorbed dose [3, 10]: 0.285 ± 0.180 mGy/MBq
- TIAC (time-integrated activity coefficient) [3, 10]: 0.06 ± 0.05 h
- λ, monoexponential curve-fitting parameter [3, 10]: 0.030 ± 0.007 h⁻¹
